Reference: patent US12151000B2, “Tolerogenic artificial antigen-presenting cells” (THE JOHNS HOPKINS UNIVERSITY, priority 2019, dated 2024)

Experiments:
[1] = tested on: IL-2Rα^− YT-1 cells; assay: YT-1 cell STAT5 phosphorylation, IL-2Rα− cells; format: cell-based, human; settings: flow cytometry, 20 minutes stimulation
Method: (§1) YT-1 cell STAT5 phosphorylation studies. Approximately 2×10^5 IL-2Rα^− YT-1 or IL-2Rα^+ YT-1 cells were plated in each well of a 96-well plate and re-suspended in RPMI complete medium containing serial dilutions of the indicated treatments. Cytokine/antibody complexes were formed by incubating a 1:1 molar ratio of F5111 antibody to hIL-2 for 1 hour at 37° C. Cells were stimulated for 20 minutes at 37° C. and immediately fixed by addition of formaldehyde to 1.5% and 10 minute incubation at room temperature. Permeabilization of cells was achieved by resuspension in ice-cold 100% methanol for 30 minutes at 4° C. Fixed and permeabilized cells were washed twice with FACS buffer (phosphate-buffered saline [PBS] pH 7.2 containing 0.1% BSA [Thermo Fisher Scientific]) and incubated with Alexa Fluor® 647-conjugated anti-STAT5 pY694 (BD Biosciences) diluted in FACS buffer for 2 hours at room temperature. Cells were then washed twice in FACS buffer and mean fluorescence intensity (MFI) was determined on a CytoFLEX flow cytometer (Beckman-Coulter). Dose-response curves were fitted to a logistic model and half-maximal effective concentrations (EC50s) were calculated using GraphPad Prism data analysis software after subtraction of the mean fluorescence intensity (MFI) of unstimulated cells and normalization to the maximum signal intensity.
(§2) A cell signaling assay was performed on YT-1 human NK cells with or without IL-2Rα.

[2] = molecular target: T1, IL-2Rα (Homo sapiens, UniProt P01589); assay: Bio-layer interferometry binding to immobilized IL-2Rα
T1 construct: the extracellular domains of the hIL-2Rα (residues 1-214) and hIL-2Rβ (residues 1-214) receptor subunits; hexahistidine (C); made in house; host or cells: HEK 293F
T1 sequence (P01589 22-235): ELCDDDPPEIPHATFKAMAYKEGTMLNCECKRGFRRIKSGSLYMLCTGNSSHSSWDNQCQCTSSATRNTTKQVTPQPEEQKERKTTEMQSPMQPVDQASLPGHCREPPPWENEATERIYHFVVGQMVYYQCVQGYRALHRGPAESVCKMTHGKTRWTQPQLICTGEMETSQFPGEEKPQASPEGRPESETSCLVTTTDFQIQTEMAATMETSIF
Method: (§3) Bio-layer interferometry binding studies. […] Less than 5 signal units (nm) of receptor was immobilized to minimize mass transfer effects. […] An irrelevant protein was included in a reference well to subtract non-specific binding. Surface regeneration for all interactions was conducted using a 15 second exposure to 0.1 M glycine pH 3.0. Experiments were carried out in PBSA (phosphate-buffered saline, pH 7.3 plus 0.1% bovine serum albumin (BSA, Thermo Fisher Scientific)) at 25° C. Data was visualized and processed using the Octet® Data Analysis software version 7.1 (Molecular Devices). Equilibrium titration curve fitting and KD value determination was implemented using GraphPad Prism, assuming all binding interactions to be first order. Experiments were reproduced two times with similar results.
(§4) The binding affinities were also evaluated using bio-layer interferometry on an OCTET® instrument with biotinylated hIL-2 immobilized on a streptavidin-coated tip (FIG. 6B). […]
(§5) Additionally, binding interactions between F5111 IC LN25 and LN35 with the human IL-2Rα (hIL-2Rα) and hIL-2Rβ subunits were measured using bio-layer interferometry on an Octet® instrument by immobilizing biotinylated hIL-2Rα and IL-2Rβ on streptavidin-coated tips.

[3] = tested on: IL-2Rα^+ YT-1 cells; assay: YT-1 cell STAT5 phosphorylation, IL-2Rα+ cells; format: cell-based, human; settings: for STAT5 activation on IL-2Rα^+ YT-1 cells: flow cytometry, 20 minutes stimulation; for selective activation of IL-2Rα^+ TReg-like cells over IL-2Rα^− TEff-like cells (bias): YT-1 cells with or without IL-2Rα
Method: as §1, §2

[4] = molecular target: T2, IL-2Rβ (Homo sapiens, UniProt P14784); assay: Bio-layer interferometry binding to immobilized IL-2Rβ
T2 construct: the extracellular domains of the hIL-2Rα (residues 1-214) and hIL-2Rβ (residues 1-214) receptor subunits; hexahistidine (C); made in house; host or cells: HEK 293F
T2 sequence (P14784 27-240): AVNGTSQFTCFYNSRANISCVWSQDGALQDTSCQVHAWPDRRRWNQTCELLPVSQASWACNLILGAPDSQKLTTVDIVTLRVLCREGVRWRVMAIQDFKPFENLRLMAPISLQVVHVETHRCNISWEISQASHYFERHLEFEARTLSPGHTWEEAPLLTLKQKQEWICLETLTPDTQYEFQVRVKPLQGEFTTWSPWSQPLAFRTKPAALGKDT
Method: as §3
(§6) The binding affinities were also evaluated using bio-layer interferometry on an OCTET® instrument with biotinylated hIL-2 immobilized on a streptavidin-coated tip (FIG. 6B). […] Bio-layer interferometry based binding studies were also conducted to assess the interaction between F5111 IC LN15 and the IL-2Rα and IL-2Rβ receptor chains, to ensure that the single-chain antibody/cytokine fusion was biased toward engagement of IL-2Rα (which is highly expressed on TReg cells but not effector cells) compared with IL-2Rβ.
as §5

[5] = molecular target: T3, immobilized hIL-2 (Homo sapiens, UniProt P60568); assay: Bio-layer interferometry binding to immobilized hIL-2; settings: biotinylated hIL-2 immobilized
T3 construct: The full hIL-2 cytokine (residues 1-133) and the extracellular domains; hexahistidine (C); made in house; host or cells: HEK 293F
T3 sequence (P60568 21-153): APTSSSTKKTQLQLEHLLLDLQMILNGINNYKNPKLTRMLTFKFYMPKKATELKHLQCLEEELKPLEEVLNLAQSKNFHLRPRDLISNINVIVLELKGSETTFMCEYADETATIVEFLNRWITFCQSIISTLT
Method: as §3, §6

[6] = molecular target: T4, human IL-2 (hIL-2) (Homo sapiens, UniProt P60568); assay: Yeast surface binding study, yeast-displayed hIL-2, flow cytometry; settings: yeast surface-displayed hIL-2
T4 construct: hIL-2 (residues 1-133) or mIL-2 (residues 1-149) were cloned into the pCT302 vector; made in house; host or cells: yeast (surface display)
T4 sequence (P60568 21-153): as above
Method: Yeast surface binding studies. For antibody binding studies on yeast, hIL-2 (residues 1-133) or mIL-2 (residues 1-149) were cloned into the pCT302 vector and presented on the surface of yeast, as described previously (Boder et al., Nat. Biotechnol., 15(6): 553-557 (1997)). […] Cells were then washed and stained with a 1:200 dilution of Alexa647-conjugated streptavidin (Thermo) in PBSA for 15 minutes at 4° C. After a final wash, cells were analyzed for antibody binding using a CytoFLEX flow cytometer (Beckman Coulter). Background-subtracted and normalized binding curves were fitted to a first-order binding model and equilibrium dissociation constant (KD) values were determined using GraphPad Prism. Studies were performed three times with similar results.
A rapid small-scale HEK 293F cell transfection assay was developed to optimize immunocytokine expression. Cells were transfected in 6-well plates with predefined ratios of heavy chain (HC) and IL-2-fused light chain (LC) plasmid DNA. After a 3-day incubation, secreted protein was captured from the supernatant with protein G resin, eluted with 0.1 M glycine pH 2.0, and analyzed via SDS-PAGE. […]
as §4

[7] = tested on: CD4^+ T cells from B6 mice; assay: In vitro FOXP3+ cell expansion in B6 CD4+ T cells; format: cell-based, mouse; settings: 3 days
Method: F5111 IC LN35-loaded microparticles or free F5111 IC LN35 (at a dose equivalent to the particle loading dose) were incubated with CD4+ cells from B6 mice for 3 days, and cells were analyzed for FOXP3 expression via flow cytometry.
To determine whether F5111 IC-encapsulated MPs could induce in vitro TReg cell expansion, CD4^+ T cells were isolated from the spleens of B6 mice and incubated with unconjugated F5111 IC or F5111 IC-loaded PLGA MPs for 3 days. Cells were then stained for CD4, CD25, and FOXP3, and analyzed using flow cytometry.

[8] = tested on: human PBMCs (TReg cells, CD8^+ and CD4^+ effector T cells); assay: Human PBMC STAT5 phosphorylation in T cell subsets; format: cell-based; settings: human PBMCs from healthy donor whole blood
Method: Human PBMC STAT5 phosphorylation studies. Human PBMCs were isolated from whole blood of healthy donors via Ficoll gradient following manufacturer protocols and then incubated with ACK lysis buffer for removal of red blood cells. Approximately 1×10^6 human PBMCs were plated in each well of a 96-well plate and re-suspended in RPMI complete medium containing serial dilutions of the indicated treatments. Cytokine/antibody complexes were formed by incubating a 1:1 molar ratio of F5111 antibody to hIL-2 for 1 hour at 37° C. Cells were stimulated for 20 minutes at 37° C. and immediately fixed by addition of 1X Fix/Perm Buffer (BD Biosciences) and 50 minute incubation at 4° C. Permeabilization of cells was achieved by resuspension in Perm Buffer III (BD Biosciences) overnight at −20° C. […] Cells were then washed twice in FACS buffer and MFI was determined on a CytoFLEX flow cytometer (Beckman-Coulter). Dose-response curves were fitted to a logistic model and half-maximal effective concentrations (EC50s) were calculated using GraphPad Prism data analysis software after subtraction of the mean fluorescence intensity (MFI) of unstimulated cells and normalization to the maximum signal intensity. […]

[9] = tested on: CD4+ T cells from C57BL/6 mice; assay: pSTAT5 expression in C57BL/6 CD4+ T cells; format: cell-based, mouse
Method: FIG. 22 is a graph showing the results of B6 CD4+ cells stimulation with titrated encapsulated particle doses or equivalent free doses of F5111 for different lengths of time, and the analysis of pSTAT5 expression using flow cytometry. A dose titration for free and MP-loaded F5111 IC LN35 was observed, with maximum pSTAT5 expression achieved after 1 hour of stimulation.
To evaluate the functionality of F5111 IC-loaded particles, mouse CD4+ T cells were stimulated with F5111 IC-loaded microparticles to identify an optimal stimulation time for maximum pSTAT5 expression, and pSTAT5 expression was compared to that of cells stimulated with free F5111 IC. CD4+ T cells were isolated from C57BL/6 mice and incubated with various doses of F5111 IC-loaded microparticles or equivalent doses of free F5111 IC for 20, 40, 60, or 120 minutes.

Substance	STAT5 activation on IL-2Rα^− YT-1 cells [1]	binding to IL-2Rα compared to free IL-2 [2]	STAT5 activation on IL-2Rα^+ YT-1 cells [3]	binding to IL-2Rβ compared to free IL-2 [4]	binding affinity for hIL-2 relative to F5111 Ab [5]	binding affinity for hIL-2 relative to F5111 Ab [6]	selective activation of IL-2Rα^+ TReg-like cells over IL-2Rα^− TEff-like cells (bias) [3]	expansion of FOXP3+ cells compared to untreated cells [7]	STAT5 activation of TReg cells compared to CD8^+ and CD4^+ effector T cells [8]	stimulation time of maximum pSTAT5 activation [9]	activation (pSTAT5) of CD4^+ T cells ([9]; various doses, 20, 40, 60, or 120 minutes)
F5111 IC LN15: immunocytokine: hIL-2 fused to N-terminus of F5111 antibody light chain by 15-amino acid (Gly4Ser)3 linker	dramatically reduced	equal potency to the free IL-2 cytokine	only mildly impaired	significantly impaired binding	significant reduction in binding affinity	significant reduction in binding affinity					
F5111 IC LN25: immunocytokine: hIL-2 fused to N-terminus of F5111 antibody light chain by 25-amino acid (Gly4Ser)5 linker	immeasurable		sub-nanomolar concentrations	significant reduction in the binding affinity			greater bias than F5111 IC LN15 and the hIL-2/F5111 complex				
F5111 IC LN35: immunocytokine: hIL-2 fused to N-terminus of F5111 antibody light chain by 35-amino acid (Gly4Ser)7 linker	immeasurable		sub-nanomolar concentrations	significant reduction in the binding affinity			greater bias than F5111 IC LN15 and the hIL-2/F5111 complex	expanded FOXP3+ cells	significantly more potent activation	60 minutes	dose-dependent manner
